Assay results as given in patent publication US20110151484A1, “hERG MUTANTS AND USES THEREOF” (priority 2008, published 2011).
Read-outs that look alike come from different tables or passages of the source.

How the values were obtained:
N588E-hERG = N588E-hERG (Homo sapiens, UniProt Q12809, N588E)
Method: (§1) CHO cells were cultured in D-ME/F12 with 10% FBS and maintained at 37° C. in 5% CO2. Cells were studied at least 24 h after being plated on microscope coverslips. Mutant hERG constructs were generated using the Megaprimer PCR method. […] Blank CHO cells were plated onto sterilised glass coverslips. After 24 h, the cells were transfected with mutant hERG constructs using PolyFect Transfection Reagent (Qiagen) according to the manufacturer's instructions. After transfection, the cells were incubated at 37° C. for a minimum of 1 day prior to electrophysiological study. Successfully transfected cells, identified by the expression of eGFP, were studied using the whole-cell configuration of the patch clamp technique.
(§2) Borosilicate glass tubing patch pipettes, with resistances of 1-4 MΩ when filled with internal solution, were made using a vertical 2-stage puller (PP-830; Narishige, Japan). The internal solution contained (in mM) 120 potassium gluconate, 20 KCl, 1.5 MgATP, 5 EGTA and 10 HEPES (pH 7.3 with KOH). […] Currents were amplified (Axopatch 200B amplifier; Molecular Devices, Sunnyvale, Calif.) and digitised (DigiData 1200; Molecular Devices) before storage on a personal computer. Capacitance current transients were electronically subtracted, and series resistance compensation was ˜80% for all experiments. Current signals were digitised at 5 kHz and low-pass filtered at 2 KHz. Some current traces were leak-subtracted off-line. Acquisition was performed using pClamp software.
(§3) Currents were measured with a two-step voltage protocol; a first step to +20 mV for 3 seconds to fully activate the channels and a second step to a negative membrane potential, usually −110 mV (but see below for variations). During this second voltage step hERG channels quickly recover from inactivation and proceed to deactivate.
(§4) Drug block was calculated as I[drug]/Icontrol, with all currents measured at the end of the activating step. […] In this way current was measured at the same time point for all cells.
(§5) Voltage-protocols were repeated at 0.1 Hz. Control currents were recorded 3-5 minutes after patch rupture, i.e. the time take for current levels to stabilise at a steady state level. […] Recording continued until a new steady state block was reached (typically 2-4 minutes). Between 2 and 4 doses of drug were applied to each cell with most experiments completed within 20 minutes.
(§6) Initial data analysis was performed using the Clampfit module of the pClamp 9.0 software. Subsequent data analysis and preparation of data for figures were performed with Mathematica 6 (Wolfram Technologies). All data are expressed as mean ±SEM (n) and statistical significance (P<0.05) was determined using paired t-tests.

WT-hERG = WT-hERG (Homo sapiens, UniProt Q12809)
Method: as §1, §2, §3, §4, §5, §6

N588K-hERG = N588K-hERG (Homo sapiens, UniProt Q12809, N588K)
Method: Currents were measured with a two-step voltage protocol; a first step to +20 mV for 3 seconds to fully activate the channels and a second step to a negative membrane potential, usually −110 mV (but see below for variations). […]

CC(C)NCC(O)c1ccc(NS(C)(=O)=O)cc1 (racemic) [dl-Sotalol]
IC50 (N588E-hERG): 586 ± 179 µM | h (Hill plot), N588E (N588E-hERG): h = 0.8 | IC50 (WT-hERG): 516 ± 35.5 µM | h (Hill plot), WT-hERG (WT-hERG): h = 0.9 | IC50 (N588K-hERG): 1390 ± 266 µM

COc1cc(N)c(Cl)cc1C(=O)NC1CCN(CCCOc2ccc(F)cc2)CC1OC (stereo not drawn) [Cisapride]
h (Hill plot), N588E (N588E-hERG; human): h = 0.8 | h (Hill plot), WT-hERG (WT-hERG; human): h = 1.0

C1CCC(C(CC2CCCCN2)C2CCCCC2)CC1 (stereo not drawn) [Perhexiline]
h (Hill plot), N588E (N588E-hERG; human): h = 0.8 | h (Hill plot), WT-hERG (WT-hERG; human): h = 1.1
